# From PubChem BioAssay (NCI)
#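 Method: 48-hour compound exposure of cells in 96-well plates, five concentrations, linear interpolation of endpoints. GI50: concentration for 50% inhibition of growth. TGI denotes the concentration required for complete inhibition of growth.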
# Key:
# Experiment in all cases: NCI-60 cell line screen, 48 h
# [1] = system: HCC-2998 colon
# [2] = system: MDA-MB-468 breast
# [3] = system: SW-620 colon
# [4] = system: OVCAR-5 ovarian
# [5] = system: SK-MEL-2 melanoma
# [6] = system: BT-549 breast
# [7] = system: DU-145 prostate
# [8] = system: MDA-MB-435
# [9] = system: HCT-15 colon
# [10] = system: ACHN renal
# [11] = system: TK-10 renal
# [12] = system: MALME-3M melanoma
# [13] = system: SNB-19 CNS
# [14] = system: HOP-62 NSCLC
# [15] = system: SNB-75 CNS
# [16] = system: MDA-MB-231 breast
# [17] = system: NCI-H226 lung
# [18] = system: HOP-92 NSCLC
# [19] = system: HL-60(TB) leukemia
# [20] = system: CAKI-1 renal
# [21] = system: COLO 205 colon
# [22] = system: PC-3 prostate
# [23] = system: NCI-H522 lung
# [24] = system: RXF 393 renal
# [25] = system: NCI-H23 lung
# [26] = system: U251 CNS
# [27] = system: K-562 leukemia
# [28] = system: OVCAR-8 ovarian
# [29] = system: NCI/ADR-RES ovarian
# [30] = system: SK-MEL-5 melanoma
# [31] = system: SF-295 CNS
# [32] = system: A498 renal
# [33] = system: LOX IMVI melanoma
# [34] = system: M14 melanoma
# [35] = system: RPMI-8226 leukemia
# [36] = system: UACC-62 melanoma
# [37] = system: SK-MEL-28 melanoma
# [38] = system: OVCAR-3 ovarian
# [39] = system: OVCAR-4 ovarian
# [40] = system: SK-OV-3 ovarian
# [41] = system: HT29 colon
# [42] = system: T-47D breast
# [43] = system: CCRF-CEM leukemia
# [44] = system: SF-539 CNS
# [45] = system: SF-268 CNS
# [46] = system: SN12C renal
# [47] = system: A549 NSCLC
# [48] = system: EKVX NSCLC
# [49] = system: MOLT-4 leukemia
# [50] = system: IGROV1 ovarian
# [51] = system: UO-31 renal
# [52] = system: HCT-116 colon
# [53] = system: KM12 colon
# [54] = system: HS 578T breast
# [55] = system: MCF7 breast
# [56] = system: NCI-H460 lung
# [57] = system: UACC-257 melanoma
# [58] = system: 786-0 renal
compound,measurement,setting,value
Brc1ccc(N/N=C/c2c[nH]c3ccc(Br)cc23)nc1,GI50,[1],1.74 µM
same,TGI,[1],3.55 µM
same,GI50,[2],1.61 µM
same,TGI,[2],4.2 µM
same,GI50,[3],2.85 µM
same,TGI,[3],11.7 µM
same,GI50,[4],2.32 µM
same,TGI,[4],9.51 µM
same,GI50,[5],2.92 µM
same,TGI,[5],11.9 µM
same,GI50,[6],0.259 µM
same,TGI,[6],5.39 µM
same,GI50,[7],4.55 µM
same,TGI,[7],16 µM
same,GI50,[8],3.45 µM
same,TGI,[8],14.1 µM
same,GI50,[9],1.8 µM
same,TGI,[9],4.25 µM
same,GI50,[10],2.66 µM
same,TGI,[10],10.5 µM
same,GI50,[11],5.85 µM
same,TGI,[11],15.1 µM
same,GI50,[12],3.26 µM
same,TGI,[12],15.3 µM
same,GI50,[13],3.09 µM
same,TGI,[13],12.4 µM
same,GI50,[14],3.14 µM
same,TGI,[14],13 µM
same,GI50,[15],0.568 µM
same,TGI,[15],6.01 µM
same,GI50,[16],1.44 µM
same,TGI,[16],3.64 µM
same,GI50,[17],0.674 µM
same,TGI,[17],10.3 µM
same,GI50,[18],1.51 µM
same,TGI,[18],4.27 µM
same,GI50,[19],1.7 µM
same,TGI,[19],18.7 µM
same,GI50,[20],1.6 µM
same,TGI,[20],9.87 µM
same,GI50,[21],2.07 µM
same,TGI,[21],5 µM
same,GI50,[22],0.851 µM
same,TGI,[22],10.1 µM
same,GI50,[23],1.6 µM
same,TGI,[23],5.54 µM
same,GI50,[24],1.85 µM
same,TGI,[24],5.64 µM
same,GI50,[25],2.14 µM
same,TGI,[25],8.21 µM
same,GI50,[26],2.54 µM
same,TGI,[26],10.5 µM
same,GI50,[27],2.73 µM
same,TGI,[27],> 100 µM
same,GI50,[28],2.96 µM
same,TGI,[28],17 µM
same,GI50,[29],2.79 µM
same,TGI,[29],12.4 µM
same,GI50,[30],2.56 µM
same,TGI,[30],8.54 µM
same,GI50,[31],1.74 µM
same,TGI,[31],3.56 µM
same,GI50,[32],4.03 µM
same,TGI,[32],13.3 µM
same,GI50,[33],1.11 µM
same,TGI,[33],2.49 µM
same,GI50,[34],2.03 µM
same,TGI,[34],5.31 µM
same,GI50,[35],1.47 µM
same,TGI,[35],8.12 µM
same,GI50,[36],0.862 µM
same,TGI,[36],10.9 µM
same,GI50,[37],3.58 µM
same,TGI,[37],13.2 µM
same,GI50,[38],2.69 µM
same,TGI,[38],9.13 µM
same,GI50,[39],4.07 µM
same,TGI,[39],17.8 µM
same,GI50,[40],2.71 µM
same,TGI,[40],13.7 µM
same,GI50,[41],2.39 µM
same,TGI,[41],5.32 µM
same,GI50,[42],1.97 µM
same,TGI,[42],12 µM
same,GI50,[43],1.27 µM
same,TGI,[43],> 100 µM
same,GI50,[44],0.795 µM
same,TGI,[44],8.06 µM
same,GI50,[45],1.84 µM
same,TGI,[45],13.9 µM
same,GI50,[46],1.05 µM
same,TGI,[46],9.73 µM
same,GI50,[47],3.26 µM
same,TGI,[47],12.7 µM
same,GI50,[48],1.74 µM
same,TGI,[48],10.9 µM
same,GI50,[49],0.644 µM
same,TGI,[49],18.5 µM
same,GI50,[50],0.251 µM
same,TGI,[50],1.89 µM
same,GI50,[51],0.532 µM
same,TGI,[51],7.55 µM
same,GI50,[52],2.68 µM
same,TGI,[52],10.6 µM
same,GI50,[53],1.67 µM
same,TGI,[53],5.88 µM
same,GI50,[54],2.13 µM
same,TGI,[54],8.29 µM
same,GI50,[55],1.59 µM
same,TGI,[55],7.85 µM
same,GI50,[56],2.7 µM
same,TGI,[56],8.64 µM
same,GI50,[57],3.47 µM
same,TGI,[57],15.3 µM
same,GI50,[58],2.5 µM
same,TGI,[58],8.24 µM
Cc1nc(Nc2ccccn2)sc1C(=O)CC(SCC(=O)Nc1ccc(Cl)cc1)c1ccccc1F (configuration not stated),GI50,[1],3.44 µM
same,TGI,[1],13.8 µM
same,GI50,[2],1.58 µM
same,TGI,[2],5.05 µM
same,GI50,[3],2.56 µM
same,TGI,[3],11.7 µM
same,GI50,[4],2.6 µM
same,TGI,[4],6.89 µM
same,GI50,[5],2.03 µM
same,TGI,[5],4.74 µM
same,GI50,[6],2.83 µM
same,TGI,[6],9.85 µM
same,GI50,[7],3.34 µM
same,TGI,[7],13.2 µM
same,GI50,[8],1.02 µM
same,TGI,[8],2.78 µM
same,GI50,[9],1.8 µM
same,TGI,[9],11.2 µM
same,GI50,[10],3.9 µM
same,TGI,[10],14.8 µM
same,GI50,[11],4.79 µM
same,TGI,[11],16.8 µM
same,GI50,[12],4.91 µM
same,TGI,[12],19.6 µM
same,GI50,[13],3.28 µM
same,TGI,[13],14.4 µM
same,GI50,[14],2.79 µM
same,TGI,[14],12.3 µM
same,GI50,[15],1.42 µM
same,TGI,[15],6.22 µM
same,GI50,[16],2.64 µM
same,TGI,[16],7.86 µM
same,GI50,[17],7.91 µM
same,TGI,[17],31.2 µM
same,GI50,[18],4.94 µM
same,TGI,[18],25.9 µM
same,GI50,[19],> 100 µM
same,TGI,[19],> 100 µM
same,GI50,[20],2.71 µM
same,TGI,[20],16.9 µM
same,GI50,[21],2.18 µM
same,TGI,[21],4.67 µM
same,GI50,[22],4.04 µM
same,TGI,[22],93.6 µM
same,GI50,[23],2.22 µM
same,TGI,[23],6.4 µM
same,GI50,[24],2.32 µM
same,TGI,[24],8.73 µM
same,GI50,[25],3.84 µM
same,TGI,[25],15.7 µM
same,GI50,[26],2.22 µM
same,TGI,[26],6.41 µM
same,GI50,[27],> 100 µM
same,TGI,[27],> 100 µM
same,GI50,[28],2.31 µM
same,TGI,[28],5.88 µM
same,GI50,[29],1.81 µM
same,TGI,[29],5.44 µM
same,GI50,[30],2.2 µM
same,TGI,[30],5.86 µM
same,GI50,[31],2.77 µM
same,TGI,[31],12.3 µM
same,GI50,[32],12.7 µM
same,TGI,[32],35.7 µM
same,GI50,[33],2.31 µM
same,TGI,[33],10.3 µM
same,GI50,[34],1.69 µM
same,TGI,[34],4.02 µM
same,GI50,[35],3.33 µM
same,TGI,[35],72.1 µM
same,GI50,[36],2.24 µM
same,TGI,[36],10.3 µM
same,GI50,[37],5.45 µM
same,TGI,[37],19.7 µM
same,GI50,[38],1.53 µM
same,TGI,[38],11.6 µM
same,GI50,[39],11.4 µM
same,TGI,[39],71.4 µM
same,GI50,[40],3.63 µM
same,TGI,[40],29.2 µM
same,GI50,[41],2.16 µM
same,TGI,[41],5.44 µM
same,GI50,[42],2.28 µM
same,TGI,[42],9.79 µM
same,GI50,[43],2.39 µM
same,TGI,[43],> 100 µM
same,GI50,[44],2.02 µM
same,TGI,[44],4.41 µM
same,GI50,[45],3.74 µM
same,TGI,[45],17.3 µM
same,GI50,[46],2.72 µM
same,TGI,[46],10.5 µM
same,GI50,[47],3.15 µM
same,TGI,[47],22.8 µM
same,GI50,[48],3.15 µM
same,TGI,[48],13.4 µM
same,GI50,[49],> 100 µM
same,TGI,[49],> 100 µM
same,GI50,[50],3.87 µM
same,TGI,[50],20.7 µM
same,GI50,[51],3.44 µM
same,TGI,[51],16.4 µM
same,GI50,[52],2.2 µM
same,TGI,[52],6.46 µM
same,GI50,[53],1.39 µM
same,TGI,[53],8.67 µM
same,GI50,[54],2.14 µM
same,TGI,[54],6.17 µM
same,GI50,[55],1.25 µM
same,TGI,[55],13.8 µM
same,GI50,[56],2.23 µM
same,TGI,[56],5.22 µM
same,GI50,[57],4.72 µM
same,TGI,[57],19.4 µM
same,GI50,[58],3.74 µM
same,TGI,[58],14.3 µM
